Experimental data reported in patent US11254657B2, “Plinabulin compositions” (priority 2015, dated 2022).
Entries after “also recorded” stand apart in the source; their conditions may differ. Where two headings read alike, the source gives them in different places.

Key:
Format in all cases: physicochemical
[1] = Dissolution in kolliphor (40% wt) and propylene glycol (60% wt); settings: mixture of kolliphor (40% wt) and propylene glycol (60% wt)
Description: A batch of plinabulin having a KF analysis of about 3.1% for water content was added to a mixture of kolliphor (40% wt) and propylene glycol (60% wt). […] The batch was reprocessed according to the steps described in FIG. 29 to form the plinabulin monohydrate (Form 1).

[2] = Dynamic Vapor Sorption (DVS) test
Description: The DSC data were collected using a TA Instruments Q10 DSC. Typically, samples (˜2 mg) were placed in hermetic alodined aluminum sample pans and scanned from 30 to 300° C. at a rate of 10° C./min under a nitrogen purge of 50 mL/min. The TGA data were collected using a TA Instruments TGA Q500. Typically, samples (˜10 mg) were placed in an open, pre-tared aluminum sample pan and scanned from 30 to 300° C. at a rate of 10° C./min using a nitrogen purge at 60 mL/min. The X-ray powder diffraction patterns were obtained using a Bruker D8 Advance equipped with a Cu Ku radiation source ([…]), a 9-position sample holder and a LYNXEYE Super Speed Detector. Typically, the duration of each scan was 180 seconds and the 2θ range was 4 to 40°. Samples were placed on zero-background, silicon plate holders. Samples were analyzed using an Aquadyne DVS-2 gravimetric water sorption analyzer. The relative humidity was adjusted between 2-95% and the weight of sample was continuously monitored and recorded.
A DVS experiment was run on the plinabulin monohydrate (Form 1). The sample gained ˜0.1% mass at 95% RH which was lost on drying to 0% RH without hysteresis. […] The XRPD pattern of the pre-DVS sample (Form 1 plinabulin monohydrate) overlays with the XRPD patterns of the post-DVS sample (Form 1 plinabulin monohydrate).

[3] = Gravimetric solubility measurement in solvents; settings: for solubility at 3 days: thermodynamic from solid, slurried 3 days
Description: A plinabulin compound was slurried in 15 different solvents/solvent mixtures as shown in Table 9 at 15° C. and 45° C. for 3 days for gravimetric solubility measurement. About 70 mg of solid was added to a vial for each experiment followed by addition of 0.7 mL of the respective solvents. Next, the slurry was centrifuged and the supernatant was added to pre-weighed vials and evaporated to dryness under vacuum. The vials with remaining solids were weighed again to calculate the solubility. […]

[4] = Karl Fischer moisture level on extended drying and humid exposure
Description: Analysis by KF after drying at 45° C. under vacuum for an additional 70 hours indicated the moisture level had decreased to 4.1%. […] This sample was placed in a glove bag in an open container with an open container of water and the moisture level monitored. After 4 hours the moisture level was measured as 5.0%. After 18.5 hours the moisture level was measured as 4.8% and after 51 hours the KF result was 4.9%.
A sample of plinabulin compound (4.92 g) was stirred in ethanol (147.6 g) and heated to reflux (fully soluble at 75° C.). The solution was then allowed to cool and monitored for precipitation. A precipitate was observed when the solution was at 48° C. The mixture was re-heated to reflux providing a clear yellow solution. To the hot solution was added 295 g of water (approximately twice the mass of ethanol) allowing the mixture to cool during the addition. A precipitate was observed after charging approximately 150 mL of water with the temperature at 48° C. This solution was allowed to cool to room temperature. The solids were filtered and washed three times with 20 g of water. The solid was dried at 40-45° C. for 2.5 days to give 4.82 g, 98.0% recovery. […] Analysis by KF after drying at 45° C. under vacuum for an additional 70 hours indicated the moisture level had decreased to 4.4%. The XRPD of this sample indicates it was essentially unchanged, a mixture of Forms 1 and 3 with additional peaks (at around 12.26°, 15.19° and 28.79° 2θ degrees). This sample was placed in a glove bag in an open container with an open container of water and the moisture level monitored. After 4 hours the moisture level was measured as 5.0%. After 18.5 hours the moisture level was measured as 4.9% and after 51 hours the KF result was 5.1%.

[5] = Drying study in vacuum oven at 50° C.; settings: overnight and over the weekend
Description: A sample of plinabulin monohydrate (Form 1) was placed in a vacuum oven at 50° C. overnight and over the weekend.

[6] = High humidity exposure stability; settings: >95% RH for 13 days
Excerpt: Form 1 was also stable under various humidity conditions. On the other hand, the crystalline forms converted to Form I monohydrate when exposed to moisture.

[7] = listed as plinabulin monohydrate (Form 1)

SMILES: CC(C)(C)c1[nH]cnc1/C=c1\[nH]c(=O)/c(=C/c2ccccc2)[nH]c1=O [Form 3]
- dissolution in diluent mixture ([1]; listed as anhydrous plinabulin (Form 3)): insoluble particles
- post-DVS sample versus pre-DVS sample by XRPD [2]: differed from the pre-DVS sample
- mass lost in DVS ([2]; at 90% RH): about 0.2%

SMILES: CC(C)(C)c1[nH]cnc1/C=c1\[nH]c(=O)/c(=C/c2ccccc2)[nH]c1=O [plinabulin compound, (3Z,6Z)-3-Benzylidene-6-{[5-(2-methyl-2-propanyl)-1H-imidazol-4-yl]methylene}-2,5-piperazinedione]
- solubility (in words) ([3]; THF): highly soluble

SMILES: CC(C)(C)c1[nH]cnc1/C=c1\[nH]c(=O)/c(=C/c2ccccc2)[nH]c1=O [plinabulin monohydrate, (3Z,6Z)-3-Benzylidene-6-{[5-(2-methyl-2-propanyl)-1H-imidazol-4-yl]methylene}-2,5-piperazinedione]
- moisture level (KF) ([4]; after drying at 45° C. under vacuum for an additional 70 hours): 4.1%
- moisture level (KF) ([4]; dried sample in glove bag with open container of water, after 4 hours): 5.0%
- moisture level (KF) ([4]; dried sample in glove bag with open container of water, after 18.5 hours): 4.8%
- moisture level (KF) ([4]; dried sample in glove bag with open container of water, after 51 hours): 4.9%
- dissolution in diluent mixture [1, 7]: dissolved completely
- change in weight during drying [5]: no change in weight
- stability on drying [5, 7]: stable to drying; also recorded: remained stable
- stability in high humidity environment ([6]; listed as form 1): no change in solid form
- stability in high humidity environment [6, 7]: no change in solid form; also recorded: remained stable with no change in mass
- solubility at 3 days ([3]; organic solvent or mixture, ACN, 15° C., read-out: Solubility at 15° C.): 3000 µg/mL
- solubility at 3 days ([3]; organic solvent or mixture, ACN, 45° C., read-out: Solubility at 45° C.): 7000 µg/mL
- solubility at 3 days ([3]; organic solvent or mixture, Acetone:water (95:5), 15° C., read-out: Solubility at 15° C.): 6000 µg/mL
- solubility at 3 days ([3]; organic solvent or mixture, Acetone:water (95:5), 45° C., read-out: Solubility at 45° C.): 16000 µg/mL
- solubility at 3 days ([3]; organic solvent or mixture, Acetone, 15° C., read-out: Solubility at 15° C.): 11000 µg/mL
- solubility at 3 days ([3]; organic solvent or mixture, Acetone, 45° C., read-out: Solubility at 45° C.): 20000 µg/mL
- solubility at 3 days ([3]; organic solvent or mixture, DCM, 15° C., read-out: Solubility at 15° C.): 2000 µg/mL
- solubility at 3 days ([3]; organic solvent or mixture, EtOAc, 15° C., read-out: Solubility at 15° C.): 3000 µg/mL
- solubility at 3 days ([3]; organic solvent or mixture, EtOAc, 45° C., read-out: Solubility at 45° C.): 8000 µg/mL
- solubility at 3 days ([3]; organic solvent or mixture, EtOH:water (95:5), 15° C., read-out: Solubility at 15° C.): 4000 µg/mL
- solubility at 3 days ([3]; organic solvent or mixture, EtOH:water (95:5), 45° C., read-out: Solubility at 45° C.): 13000 µg/mL
- solubility at 3 days ([3]; organic solvent or mixture, EtOH, 15° C., read-out: Solubility at 15° C.): 5000 µg/mL
- solubility at 3 days ([3]; organic solvent or mixture, EtOH, 45° C., read-out: Solubility at 45° C.): 13000 µg/mL
- solubility at 3 days ([3]; organic solvent or mixture, Heptane, 15° C., read-out: Solubility at 15° C.): < 1000 µg/mL
- solubility at 3 days ([3]; organic solvent or mixture, Heptane, 45° C., read-out: Solubility at 45° C.): 3000 µg/mL
- solubility at 3 days ([3]; organic solvent or mixture, IPA, 15° C., read-out: Solubility at 15° C.): 1000 µg/mL
- solubility at 3 days ([3]; organic solvent or mixture, IPA, 45° C., read-out: Solubility at 45° C.): 7000 µg/mL
- solubility at 3 days ([3]; organic solvent or mixture, MEK, 15° C., read-out: Solubility at 15° C.): 11000 µg/mL
- solubility at 3 days ([3]; organic solvent or mixture, MEK, 45° C., read-out: Solubility at 45° C.): 23000 µg/mL
- solubility at 3 days ([3]; organic solvent or mixture, MTBE, 15° C., read-out: Solubility at 15° C.): < 1000 µg/mL
- solubility at 3 days ([3]; organic solvent or mixture, MTBE, 45° C., read-out: Solubility at 45° C.): 5000 µg/mL
- solubility at 3 days ([3]; organic solvent or mixture, MeOH, 15° C., read-out: Solubility at 15° C.): 5000 µg/mL
- solubility at 3 days ([3]; organic solvent or mixture, MeOH, 45° C., read-out: Solubility at 45° C.): 13000 µg/mL
- solubility at 3 days ([3]; organic solvent or mixture, THF, 15° C., read-out: Solubility at 15° C.): 40000 µg/mL
- solubility at 3 days ([3]; organic solvent or mixture, THF, 45° C., read-out: Solubility at 45° C.): 96000 µg/mL
- solubility at 3 days ([3]; organic solvent or mixture, Toluene, 15° C., read-out: Solubility at 15° C.): 1000 µg/mL
- solubility at 3 days ([3]; organic solvent or mixture, Toluene, 45° C., read-out: Solubility at 45° C.): 7000 µg/mL
- solubility at 3 days ([3]; Water, 15° C., read-out: Solubility at 15° C.): < 1000 µg/mL
- solubility at 3 days ([3]; Water, 45° C., read-out: Solubility at 45° C.): < 1000 µg/mL
- stability during the DVS and drying tests (in words) [2]: remained stable
- mass gained in DVS ([2]; at 95% RH): ~0.1%
- post-DVS sample versus pre-DVS sample by XRPD [2, 7]: no transformation had taken place
